Laboratory results reported in patent US10259810B2, “N-sulfonylated pyrazolo[3,4-b]pyridin-6-carboxamides and method of use” (AbbVie S.à.r.l., priority 2015, dated 2019).

Assays:
Format in all cases: cell-based
ΔF508-CFTR [1] = target: T1, ΔF508-CFTR (Homo sapiens, UniProt P13569, DEL508-508); test: CFTR cell surface levels using HRP-tagged ΔF508-CFTR expressing CFBE cells, in the presence of a co-corrector; conditions: HRP-tagged ΔF508-CFTR CFBE cells, in the presence of 3 μM co-corrector; for EC50: read-out: EC50
T1 construct: host or cells: CFBE41o-, doxycycline-inducible
T1 sequence (P13569 with tags, fused parts or gaps DEL508-508): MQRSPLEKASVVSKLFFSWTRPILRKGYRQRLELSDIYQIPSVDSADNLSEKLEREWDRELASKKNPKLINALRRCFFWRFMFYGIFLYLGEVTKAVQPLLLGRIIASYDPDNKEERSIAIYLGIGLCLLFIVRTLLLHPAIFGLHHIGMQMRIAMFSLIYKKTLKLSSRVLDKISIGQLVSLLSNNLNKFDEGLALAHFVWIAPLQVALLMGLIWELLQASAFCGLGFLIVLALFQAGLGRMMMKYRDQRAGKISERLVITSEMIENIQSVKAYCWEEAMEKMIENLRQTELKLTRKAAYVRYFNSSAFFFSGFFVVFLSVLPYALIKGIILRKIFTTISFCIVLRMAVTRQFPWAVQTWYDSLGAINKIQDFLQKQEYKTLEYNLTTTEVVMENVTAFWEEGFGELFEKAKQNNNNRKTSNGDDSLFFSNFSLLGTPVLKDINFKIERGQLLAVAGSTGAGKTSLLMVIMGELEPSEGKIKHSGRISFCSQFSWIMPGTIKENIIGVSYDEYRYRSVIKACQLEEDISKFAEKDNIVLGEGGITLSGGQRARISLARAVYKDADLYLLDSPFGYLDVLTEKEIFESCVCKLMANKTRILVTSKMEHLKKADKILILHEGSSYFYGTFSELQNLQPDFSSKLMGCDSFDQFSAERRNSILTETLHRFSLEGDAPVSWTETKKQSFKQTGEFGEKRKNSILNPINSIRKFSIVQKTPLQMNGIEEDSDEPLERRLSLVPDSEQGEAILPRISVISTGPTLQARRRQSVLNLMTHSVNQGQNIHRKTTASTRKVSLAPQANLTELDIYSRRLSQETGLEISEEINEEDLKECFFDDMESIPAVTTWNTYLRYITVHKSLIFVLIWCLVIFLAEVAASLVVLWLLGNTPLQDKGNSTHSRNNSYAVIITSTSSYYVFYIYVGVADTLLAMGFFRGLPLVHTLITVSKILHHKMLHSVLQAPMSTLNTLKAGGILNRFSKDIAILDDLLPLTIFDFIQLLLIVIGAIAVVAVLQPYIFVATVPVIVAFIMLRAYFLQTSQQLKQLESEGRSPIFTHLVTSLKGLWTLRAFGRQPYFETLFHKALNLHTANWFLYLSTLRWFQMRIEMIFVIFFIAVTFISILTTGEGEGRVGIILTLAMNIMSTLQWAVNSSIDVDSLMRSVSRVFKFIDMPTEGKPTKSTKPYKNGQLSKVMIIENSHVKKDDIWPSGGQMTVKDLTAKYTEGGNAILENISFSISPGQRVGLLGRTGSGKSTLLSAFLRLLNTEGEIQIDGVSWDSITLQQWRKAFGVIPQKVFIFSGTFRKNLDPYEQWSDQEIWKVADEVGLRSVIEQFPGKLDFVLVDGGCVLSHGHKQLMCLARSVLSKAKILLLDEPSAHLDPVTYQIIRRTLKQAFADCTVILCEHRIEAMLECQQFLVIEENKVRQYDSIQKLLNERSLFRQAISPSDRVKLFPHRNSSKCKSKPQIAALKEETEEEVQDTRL
Outline: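 Chemiluminescent read-out of surface HRP (15 min, dark) after PBS washes. Activity is normalized as 100×(sample−DMSO)/(3 μM co-corrector alone−DMSO).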

ΔF508-CFTR [2] = target: T1, ΔF508-CFTR; test: CFTR cell surface levels using HRP-tagged ΔF508-CFTR expressing CFBE cells, intrinsic corrector capacity; design: % Activation: concentration or dose not given beside the values; conditions: HRP-tagged ΔF508-CFTR expressing CFBE41o- cells, compound alone (intrinsic corrector capacity), 20 hours at 33° C.; for EC50: read-out: EC50
Outline: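 Read-out: chemiluminescent HRP activity of ECL4-HRP-tagged ΔF508-CFTR at the cell surface, 15 min substrate in dark. Normalized as 100×(sample−DMSO)/(positive control−DMSO).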

CFTR ΔF508 = target: T2, CFTR ΔF508 (Homo sapiens, UniProt P13569, DEL508-508); test: Chronic TECC assay, primary bronchial epithelial cells of CF patients homozygous for CFTR ΔF508 (corrector, co-corrector and potentiator); conditions: chronic TECC, AUC = full area under the curve upon forskolin stimulation; for % Activity at 1 μM (AUC**): test compound at 1 μM; for EC50: read-out: EC50 (nM) (AUC**)
T2 construct: bronchial epithelial cells isolated from CF patients homozygous for the CFTR ΔF508 mutation; McGill University; Asterand; University of North Carolina hAEC-CF; host or cells: primary human bronchial epithelial cells from CF patients homozygous for ΔF508, differentiated at air-liquid interface
T2 sequence (P13569 with tags, fused parts or gaps DEL508-508): as above
Outline: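 Primary bronchial epithelial cells from ΔF508-homozygous CF patients on collagen IV-coated Transwells were chronically treated with test compound plus corrector and potentiator, which were re-added before recording. Ieq was derived from PD and Rt in NaCl-Ringer, pH 7.4, at 37° C, with apical amiloride and bilateral forskolin, recorded every 2 min over 20 min. Ieq increase was normalized to controls, and EC50 was taken from per-well concentrations.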

Structure (SMILES)	% Activation (ΔF508-CFTR [1])	EC50 (ΔF508-CFTR [1])	% Activation (ΔF508-CFTR [2])	EC50 (ΔF508-CFTR [2])	% Activity at 1 μM (AUC**) (CFTR ΔF508)	EC50 (CFTR ΔF508)
CS(=O)(=O)NC(=O)c1cc(OCCN2CCS(=O)(=O)CC2)c2c(C3CCC3)nn(-c3ccccc3)c2n1 [Compound 243, 3-cyclobutyl-4-[2-(1,1-dioxo-1λ^6,4-thiazinan-4-yl)ethoxy]-N-(methanesulfonyl)-1-phenyl-1H-pyrazolo[3,4-b]pyridine-6-carboxamide]	204.1%	3330 nM	78.11%	3340 nM	165.81%	–
CS(=O)(=O)NC(=O)c1cc(N2CCC(CO)CC2)c2c(C3CCC3)nn(-c3ccccc3)c2n1 [Compound 244, 3-cyclobutyl-4-[4-(hydroxymethyl)piperidin-1-yl]-N-(methanesulfonyl)-1-phenyl-1H-pyrazolo[3,4-b]pyridine-6-carboxamide]	290.6%	413 nM	182.7%	381 nM	238.89%	–
COCC1CCN(c2cc(C(=O)NS(=O)(=O)c3cnn(C)c3)nc3c2c(C2CCC2)nn3-c2ccccc2)CC1 [Compound 245, 3-cyclobutyl-4-[4-(methoxymethyl)piperidin-1-yl]-N-(1-methyl-1H-pyrazole-4-sulfonyl)-1-phenyl-1H-pyrazolo[3,4-b]pyridine-6-carboxamide]	460%	694 nM	228%	495 nM	628.25%	–
COCCN(CCOC)c1ccc(-c2cc(C(=O)NS(C)(=O)=O)nc3c2c(C2CCC2)nn3-c2ccccc2)cn1 [Compound 246, 4-{6-[bis(2-methoxyethyl)amino]pyridin-3-yl}-3-cyclobutyl-N-(methanesulfonyl)-1-phenyl-1H-pyrazolo[3,4-b]pyridine-6-carboxamide]	331.65%	77.3 nM	112.1%	371 nM	301.36%	61 nM
COCC1(OC)CCN(c2cc(C(=O)NS(C)(=O)=O)nc3c2c(C2CCC2)nn3-c2ccccc2)CC1 [Compound 247, 3-cyclobutyl-N-(methanesulfonyl)-4-[4-methoxy-4-(methoxymethyl)piperidin-1-yl]-1-phenyl-1H-pyrazolo[3,4-b]pyridine-6-carboxamide]	281.7%	221 nM	126.8%	460 nM	422.93%	81 nM
COCC1CCN(c2cc(C(=O)NS(C)(=O)=O)nc3c2c(C(C)C)nn3-c2ccnc(N3CCOCC3)c2)CC1 [Compound 248, N-(methanesulfonyl)-4-[4-(methoxymethyl)piperidin-1-yl]-1-[2-(morpholin-4-yl)pyridin-4-yl]-3-(propan-2-yl)-1H-pyrazolo[3,4-b]pyridine-6-carboxamide]	450.6%	221 nM	234.6%	371 nM	275.96%	–
COCCS(=O)(=O)NC(=O)c1cc(N2CCC(COC)CC2)c2c(C(C)C)nn(-c3ccnc(N4CCOCC4)c3)c2n1 [Compound 249, N-(2-methoxyethanesulfonyl)-4-[4-(methoxymethyl)piperidin-1-yl]-1-[2-(morpholin-4-yl)pyridin-4-yl]-3-(propan-2-yl)-1H-pyrazolo[3,4-b]pyridine-6-carboxamide]	468.15%	231 nM	187.6%	371 nM	271.29%	–
COCC1CCN(c2cc(C(=O)NS(=O)(=O)c3cn(C)c(C)n3)nc3c2c(C2CCC2)nn3-c2ccccc2)CC1 [Compound 250, 3-cyclobutyl-N-(1,2-dimethyl-1H-imidazole-4-sulfonyl)-4-[4-(methoxymethyl)piperidin-1-yl]-1-phenyl-1H-pyrazolo[3,4-b]pyridine-6-carboxamide]	440.4%	372 nM	232.7%	514 nM	331.21%	–
COCCS(=O)(=O)NC(=O)c1cc(N2CCC(COC)CC2)c2c(C(C)C)nn(C3CCCCC3)c2n1 [Compound 251, 1-cyclohexyl-N-(2-methoxyethanesulfonyl)-4-[4-(methoxymethyl)piperidin-1-yl]-3-(propan-2-yl)-1H-pyrazolo[3,4-b]pyridine-6-carboxamide]	488.7%	367 nM	273.3%	634 nM	336.34%	–
COCCN(CCOC)c1ccc(-c2cc(C(=O)NS(C)(=O)=O)nc3c2c(C(C)C)nn3-c2ccnc(N3CCOCC3)c2)cn1 [Compound 252, 4-{6-[bis(2-methoxyethyl)amino]pyridin-3-yl}-N-(methanesulfonyl)-1-[2-(morpholin-4-yl)pyridin-4-yl]-3-(propan-2-yl)-1H-pyrazolo[3,4-b]pyridine-6-carboxamide]	310.75%	1690 nM	115.2%	396 nM	248.51%	–
COCCS(=O)(=O)NC(=O)c1cc(N2CCC(COC)CC2)c2c(C(C)C)nn(CC3CCC3)c2n1 [Compound 263, 1-(cyclobutylmethyl)-N-(2-methoxyethanesulfonyl)-4-[4-(methoxymethyl)piperidin-1-yl]-3-(propan-2-yl)-1H-pyrazolo[3,4-b]pyridine-6-carboxamide]	475.45%	404 nM	260.1%	445 nM	399.85%	77 nM
COCC1CCN(c2cc(C(=O)NS(=O)(=O)CCN3CCOCC3)nc3c2c(C2CCC2)nn3-c2ccccc2)CC1 [Compound 267, 3-cyclobutyl-4-[4-(methoxymethyl)piperidin-1-yl]-N-[2-(morpholin-4-yl)ethanesulfonyl]-1-phenyl-1H-pyrazolo[3,4-b]pyridine-6-carboxamide]	433%	57.1 nM	274.8%	172 nM	–	130 nM
COCCS(=O)(=O)NC(=O)c1cc(OCC2(C)COC2)c2c(C3CCC3)nn(-c3ccccc3)c2n1 [Compound 269, 3-cyclobutyl-N-(2-methoxyethanesulfonyl)-4-[(3-methyloxetan-3-yl)methoxy]-1-phenyl-1H-pyrazolo[3,4-b]pyridine-6-carboxamide]	275.45%	97.2 nM	120.6%	246 nM	172.35%	–
CC(C)N1CCN(c2cc(C(=O)NS(C)(=O)=O)nc3c2c(C2CCC2)nn3-c2ccccc2)CC1 [Compound 270, 3-cyclobutyl-N-(methanesulfonyl)-1-phenyl-4-[4-(propan-2-yl)piperazin-1-yl]-1H-pyrazolo[3,4-b]pyridine-6-carboxamide]	327.9%	731 nM	161.5%	1490 nM	250%	297 nM
COCC1CCN(c2cc(C(=O)NS(=O)(=O)CCCN3CCOCC3)nc3c2c(C(C)C)nn3-c2ccc(F)cc2)CC1 [Compound 272, 1-(4-fluorophenyl)-4-[4-(methoxymethyl)piperidin-1-yl]-N-[3-(morpholin-4-yl)propane-1-sulfonyl]-3-(propan-2-yl)-1H-pyrazolo[3,4-b]pyridine-6-carboxamide]	451.2%	43.3 nM	268.2%	96.5 nM	285.35%	–
